One may read the IC50 as the midpoint of a concentration-inhibition curve.

Counter-ions that a name gives are not always drawn.

T1 sequence (P41594 21-1212): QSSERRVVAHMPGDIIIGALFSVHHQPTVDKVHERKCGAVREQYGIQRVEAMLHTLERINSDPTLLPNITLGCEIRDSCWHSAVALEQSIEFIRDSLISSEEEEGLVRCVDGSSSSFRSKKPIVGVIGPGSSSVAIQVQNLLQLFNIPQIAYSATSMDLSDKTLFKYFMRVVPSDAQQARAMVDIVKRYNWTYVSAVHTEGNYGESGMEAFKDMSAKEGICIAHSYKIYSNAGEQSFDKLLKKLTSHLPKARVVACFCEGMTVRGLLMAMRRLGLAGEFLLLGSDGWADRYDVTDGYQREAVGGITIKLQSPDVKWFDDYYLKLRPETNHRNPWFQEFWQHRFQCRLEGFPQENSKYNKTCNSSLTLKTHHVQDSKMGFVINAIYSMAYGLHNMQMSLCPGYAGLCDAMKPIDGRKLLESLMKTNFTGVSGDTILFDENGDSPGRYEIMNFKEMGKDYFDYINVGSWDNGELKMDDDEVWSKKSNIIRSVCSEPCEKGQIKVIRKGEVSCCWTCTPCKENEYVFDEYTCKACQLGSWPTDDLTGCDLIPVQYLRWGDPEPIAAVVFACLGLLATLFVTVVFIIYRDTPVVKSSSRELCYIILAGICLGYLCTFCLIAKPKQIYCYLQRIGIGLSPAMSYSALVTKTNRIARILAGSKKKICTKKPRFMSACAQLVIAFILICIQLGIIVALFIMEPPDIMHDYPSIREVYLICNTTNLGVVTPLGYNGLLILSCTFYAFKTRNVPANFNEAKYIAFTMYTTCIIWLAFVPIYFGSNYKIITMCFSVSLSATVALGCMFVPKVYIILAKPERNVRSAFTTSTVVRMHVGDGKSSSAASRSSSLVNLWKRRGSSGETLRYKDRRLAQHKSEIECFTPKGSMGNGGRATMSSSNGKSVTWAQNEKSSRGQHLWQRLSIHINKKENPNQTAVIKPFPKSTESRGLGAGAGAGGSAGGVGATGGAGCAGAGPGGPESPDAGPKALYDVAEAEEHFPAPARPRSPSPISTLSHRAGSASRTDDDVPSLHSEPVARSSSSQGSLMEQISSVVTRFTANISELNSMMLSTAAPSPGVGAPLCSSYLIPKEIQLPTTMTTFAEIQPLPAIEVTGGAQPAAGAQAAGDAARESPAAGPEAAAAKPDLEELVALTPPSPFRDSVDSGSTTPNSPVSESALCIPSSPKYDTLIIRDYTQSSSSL

This assay addresses T1, human mGluR5 (Homo sapiens, UniProt P41594).
T1 construct: expressed in transfected cells
The assay can be described thus: Experiment for receptor function of mGluR5 (Ca2+-dependent fluorescence, FLIPR, CHO-K1 cells stably expressing human mGluR5). To be noted: L-glutamic acid 10 μM, Fluo-4 fluorescence. The class given is cell-based. How it is done:
Stable expression cells in which the human mGluR5 gene had been introduced into a Chinese hamster ovary cell (CHO-K1) were used for evaluation. The cells were suspended in a growth medium (MEM-α (D8042, available from Sigma) containing 10% inactivated FBS (Cat. No. 171012, available from CCB) and 2 mM glutamax (Cat. No. 35050, available from GIBCO)) and seeded on a black clear-bottom 96-well plate at 100,000 cells per well. One day after seeding, the medium was replaced by a medium (Hanks' balanced salt solution (HBSS buffer solution) (20 mM HEPES, 2.5 mM probencide (165-15472, available from Wako Pure Chemical Industries, Ltd.), and 10×HBSS (14065-056, available from Gibco) diluted 10 times, pH 7.4)) containing a calcium-sensitive dye Fluo-4 AM at a final concentration of […] (F312, available from Dojindo Laboratories) and Pluronic F-127 at a final concentration of 0.0145% (P-2443, available from Sigma), followed by incubation at 37° C. for one hour, thereby loading Fluo-4 AM into the cells.
Subsequently, the cells were washed twice with an HBSS buffer solution, to which was subsequently added the same buffer solution. Twenty minutes thereafter, the plate was transferred into a fluorescence screening system (FLIPR TETRA, available from Molecular Devices, LLC) and measured for a Ca^2+-dependent fluorescence change in the cells.
First of all, a fluorescence baseline was measured, and thereafter, fluorescence measurement was performed for 2 minutes while adding a test substance, an excessive amount of 6-methyl-2-(phenylethynyl)pyridine (hereinafter referred to as “MPEP”) (final concentration: 10 μM), or the medium. Thereafter, fluorescence measurement was carried out for one minute while adding L-glutamic acid (final concentration: 10 μM).
While taking a fluorescence intensity caused by L-glutamic acid as 100% and a fluorescence intensity caused by L-glutamic acid in the presence of MPEP as 0%, respectively, function inhibitory activity against human mGluR5 was evaluated from the fluorescence intensity caused by L-glutamic acid in the presence of the test substance at each concentration, and an IC50 value was estimated according to a logistic equation (SAS System).
On to `Fc1cccc(-c2cc(OCc3ccccn3)nc3c2CCC3)c1` [Example 58, 4-(3-Fluorophenyl)-2-(pyridin-2-ylmethoxy)-6,7-dihydro-5H-cyclopenta[b]pyridine], for which the IC50 was determined as 55.6 nM.

For the molecule `c1ccc(COc2cc(-c3cccnn3)c3c(n2)CCC3)nc1` [Example 271, 4-(Pyridazin-3-yl)-2-(pyridin-2-ylmethoxy)-6,7-dihydro-5H-cyclopenta[b]pyridine], the IC50 is 92 nM. With `O=[N+]([O-])c1cccc(-c2cc(OCc3ccccn3)nc3c2CCC3)c1` [Example 63, 4-(3-Nitrophenyl)-2-(pyridin-2-ylmethoxy)-6,7-dihydro-5H-cyclopenta[b]pyridine] the figure was 59.9 nM; with `Fc1cccc(COc2cc(-c3cncnc3)c3c(n2)CCCC3)c1` [Example 281, 2-[(3-Fluorobenzyl)oxy]-4-(pyrimidin-5-yl)-5,6,7,8-tetrahydroquinoline], 94 nM. For the molecule `Cn1nccc1-c1cc(OCc2ccc(C#N)cn2)nc2c1CCC2` [Example 274, 6-({[4-(1-Methyl-1H-pyrazol-5-yl)-6,7-dihydro-5H-cyclopenta[b]pyridin-2-yl]oxy}methyl)pyridine-3-carbo nitrile], the half-maximal inhibitory concentration (IC50) turned out to be 61 nM. `CNc1cncc(-c2cc(OCc3ccccn3)nc3c2CCCC3)n1` [Example 208, N-Methyl-6-[2-(pyridin-2-ylmethoxy)-5,6,7,8-tetrahydroquinolin-4-yl]pyrazin-2-amine hydrochloride] had a half-maximal inhibitory concentration (IC50) of 125 nM.

In turn, `CS(=O)(=O)Oc1cc(F)cc(-c2cc(OCc3ccccn3)nc3c2CCC3)c1` [Example 69, 3-Fluoro-5-[2-(pyridin-2-ylmethoxy)-6,7-dihydro-5H-cyclopenta[b]pyridin-4-yl]phenyl methanesulfonate] showed an IC50 of 94 nM. Under `Fc1ccnc(-c2cc(OCc3ccccn3)nc3c2CCCC3)c1` [Example 223, 4-(4-Fluoropyridin-2-yl)-2-(pyridin-2-ylmethoxy)-5,6,7,8-tetrahydroquinoline] stands 47.3 nM; under `c1ccc(COc2cc(-c3cnccn3)c3c(n2)CCCCC3)nc1` [Example 234, 4-(Pyrazin-2-yl)-2-(pyridin-2-ylmethoxy)-6,7,8,9-tetrahydro-5H-cyclohepta[b]pyridine hydrochloride], 41.4 nM; under `Nc1ncc(-c2cc(OCc3ccccn3)nc3c2CCC3)cn1` [Example 259, 5-[2-(Pyridin-2-ylmethoxy)-6,7-dihydro-5H-cyclopenta[b]pyridin-4-yl]pyrimidin-2-amine hydrochloride], 27.3 nM. With `CC(C)(O)c1cncc(-c2cc(OCc3ccccn3)nc3c2CCC3)n1` [Example 55, 2-{6-[2-(Pyridin-2-ylmethoxy)-6,7-dihydro-5H-cyclopenta[b]pyridin-4-yl]pyrazin-2-yl}propan-2-ol] the figure was 348 nM; with `c1ccc(COc2cc(-c3cncs3)c3c(n2)CCCC3)nc1` [Example 224, 2-(Pyridin-2-ylmethoxy)-4-(1,3-thiazol-5-yl)-5,6,7,8-tetrahydroquinoline], 25.6 nM; with `Clc1nccnc1-c1cc(OCc2ccccn2)nc2c1CCCC2` [Example 197, 4-(3-Chloropyrazin-2-yl)-2-(pyridin-2-ylmethoxy)-5,6,7,8-tetrahydroquinoline hydrochloride], 93.7 nM. With `Cc1ncc(-c2cc(OCc3ccccc3)nc3c2CCC3)cn1` [Example 38, 2-(Benzyloxy)-4-(2-methylpyrimidin-5-yl)-6,7-dihydro-5H-cyclopenta[b]pyridine] the figure was 45 nM. Molecule `N#Cc1ccc(COc2cc(-c3cccnn3)c3c(n2)CCC3)nc1` [Example 275, 6-({[4-(Pyridazin-3-yl)-6,7-dihydro-5H-cyclopenta[b]pyridin-2-yl]oxy}methyl)pyridine-3-carbonitrile] showed an IC50 of 82 nM. With `c1cncc(-c2cc(OCc3nccs3)nc3c2CCCC3)c1` [Example 94, 4-(Pyridin-3-yl)-2-(1,3-thiazol-2-ylmethoxy)-5,6,7,8-tetrahydroquinoline hydrochloride] the figure was 75 nM. With `Clc1ncncc1-c1cc(OCc2ccccn2)nc2c1CCCC2` [Example 176, 4-(4-Chloropyrimidin-5-yl)-2-(pyridin-2-ylmethoxy)-5,6,7,8-tetrahydroquinoline hydrochloride] the figure was 70.8 nM; with `Fc1cccc(COc2cc(-c3cccnc3)c3c(n2)CCCC3)n1` [Example 86, 2-[(6-Fluoropyridin-2-yl)methoxy]-4-(pyridin-3-yl)-5,6,7,8-tetrahydroquinoline], 15.1 nM. In turn, `N#Cc1ncc(-c2cc(OCc3cccc(F)n3)nc3c2CCC3)cn1` [Example 48, 5-{2-[(6-Fluoropyridin-2-yl)methoxy]-6,7-dihydro-5H-cyclopenta[b]pyridin-4-yl}pyrimidine-2-carbonitrile] displayed a half-inhibitory concentration (IC50) of 72 nM. Compared with the last molecule, the IC50 is about 4.8-fold higher.

With `N#Cc1cccc(COc2cc(-c3ccnc(F)c3)c3c(n2)CCC3)c1` [Example 251, 3-({[4-(2-Fluoropyridin-4-yl)-6,7-dihydro-5H-cyclopenta[b]pyridin-2-yl]oxy}methyl)benzonitrile], the IC50 turned out to be 94.3 nM. This IC50 and that of the molecule before are within 1.5-fold of each other. Under `CNc1cccc(COc2cc(-c3cncnc3)c3c(n2)CCCC3)n1` [Example 158, N-Methyl-6-({[4-(pyrimidin-5-yl)-5,6,7,8-tetrahydroquinolin-2-yl]oxy}methyl)pyridin-2-amine] stands 253 nM; under `Fc1ccc(-c2cc(OCc3ccccn3)nc3c2CCCC3)cn1` [Example 101, 4-(6-Fluoropyridin-3-yl)-2-(pyridin-2-ylmethoxy)-5,6,7,8-tetrahydroquinoline dihydrochloride], 23.4 nM; under `COc1cncc(-c2cc(OCc3ccccn3)nc3c2CCCC3)n1` [Example 205, 4-(6-Methoxypyrazin-2-yl)-2-(pyridin-2-ylmethoxy)-5,6,7,8-tetrahydroquinoline hydrochloride], 93 nM.

Molecule `c1ccc(COc2cc(-c3cccnc3)c3c(n2)CCC3)nc1` [Example 1, 4-(Pyridin-3-yl)-2-(pyridin-2-ylmethoxy)-6,7-dihydro-5H-cyclopenta[b]pyridine dihydrochloride] came in with an IC50 of 144 nM.

In the case of `Cc1ccc(-c2cc(OCc3ccccn3)nc3c2CCC3)cc1F` [Example 64, 4-(3-Fluoro-4-methylphenyl)-2-(pyridin-2-ylmethoxy)-6,7-dihydro-5H-cyclopenta[b]pyridine], the midpoint of inhibition, the IC50, lay at 297 nM.

Take `N#Cc1ccc(COc2cc(-c3cncc(CO)c3)c3c(n2)CCC3)cc1` [Example 247, 4-[({4-[5-(Hydroxymethyl)pyridin-3-yl]-6,7-dihydro-5H-cyclopenta[b]pyridin-2-yl}oxy)methyl]benzonitrile]: the half-inhibitory concentration (IC50) was 52 nM. Compared with the last molecule, the IC50 is about 5.7-fold lower. With `Clc1cncc(-c2cc(OCc3ccccn3)nc3c2CCCC3)n1` [Example 195, 4-(6-Chloropyrazin-2-yl)-2-(pyridin-2-ylmethoxy)-5,6,7,8-tetrahydroquinoline], the IC50 is 24.3 nM. `Fc1ccc(COc2cc(-c3cncnc3)c3c(n2)CCC3)nc1` [Example 25, 2-[(5-Fluoropyridin-2-yl)methoxy]-4-(pyrimidin-5-yl)-6,7-dihydro-5H-cyclopenta[b]pyridine]: the 50% inhibitory concentration (IC50) was 60.6 nM. With `Fc1ncc(-c2cc(OCc3ccccn3)nc3c2CCCC3)cn1` [Example 167, 4-(2-Fluoropyrimidin-5-yl)-2-(pyridin-2-ylmethoxy)-5,6,7,8-tetrahydroquinoline hydrochloride], the IC50 turned out to be 20.4 nM.
